From ChEMBL document CHEMBL5247590, “Novel nitrogen mustard-artemisinin hybrids with potent anti-leukemia action through DNA damage and activation of GPx” (Eur J Med Chem, 2022)
Activity calls are given as the source filed them. The calls are words filed in the database; no cut-off is given here.

Key:
HCT-116 = assay: Antiproliferative activity against human HCT-116 cells assessed as cell growth inhibition incubated for 72 hrs by MTT assay; format: functional, cell-based; settings: HCT-116, 72 h
A549 = assay: Antiproliferative activity against human A549 cells assessed as cell growth inhibition incubated for 72 hrs by MTT assay; format: functional, cell-based; settings: A549, 72 h
[1] = Selectivity index, ratio of IC50 for human L02 cells to IC50 for human CCRF-CEM cells; format: toxicity; settings: L02 cells and CCRF-CEM cells, read-out: Selectivity Index
[2] = Selectivity index, ratio of IC50 for human HL-60 cells to IC50 for human CCRF-CEM cells
CCRF-CEM [3] = assay: Antiproliferative activity against human CCRF-CEM cells assessed as cell growth inhibition incubated for 24 to 72 hrs by CCK8 assay; format: functional, cell-based; settings: dose 0.1875-20 µM, time 24-72 hrs
CCRF-CEM [4] = assay: Induction of apoptosis in human CCRF-CEM cells assessed as early apoptotic cells at 0.25 uM incubated for 48 hrs by Annexin V-FITC/PI staining based flow cytometry (reference value: 13.4 %); format: functional
CCRF-CEM [5] = assay: Induction of apoptosis in human CCRF-CEM cells assessed as necrotic cells at 0.25 uM incubated for 48 hrs by Annexin V-FITC/PI staining based flow cytometry (reference value: 0.0 %); format: functional
CCRF-CEM [6] = assay: Induction of apoptosis in human CCRF-CEM cells assessed as viable cells at 0.5 uM incubated for 48 hrs by Annexin V-FITC/PI staining based flow cytometry (reference value: 83.4 %); format: functional; settings: read-out: Activity
CCRF-CEM [7] = assay: Induction of apoptosis in human CCRF-CEM cells assessed as late apoptotic cells at 1 uM incubated for 48 hrs by Annexin V-FITC/PI staining based flow cytometry (reference value: 3.2 %); format: functional
CCRF-CEM [8] = assay: Induction of apoptosis in human CCRF-CEM cells assessed as necrotic cells at 1 uM incubated for 48 hrs by Annexin V-FITC/PI staining based flow cytometry (reference value: 0.0 %); format: functional
CCRF-CEM [9] = assay: Induction of apoptosis in human CCRF-CEM cells assessed as late apoptotic cells at 2 uM incubated for 48 hrs by Annexin V-FITC/PI staining based flow cytometry (reference value: 3.2 %); format: functional
CCRF-CEM [10] = assay: Induction of apoptosis in human CCRF-CEM cells assessed as early apoptotic cells at 4 uM incubated for 48 hrs by Annexin V-FITC/PI staining based flow cytometry (reference value: 13.4 %); format: functional
CCRF-CEM [11] = assay: Induction of apoptosis in human CCRF-CEM cells assessed as necrotic cells at 4 uM incubated for 48 hrs by Annexin V-FITC/PI staining based flow cytometry (reference value: 0.0 %); format: functional
CCRF-CEM [12] = assay: Induction of DNA damage in human CCRF-CEM cells assessed as increase in gammaH2AX phosphorylation incubated for 24 hrs by DAPI staining based immunofluorescence microscopic analysis; format: functional, cell-based; settings: dose 1-4 µM
CCRF-CEM [13] = assay: Induction of cell cycle arrest in human CCRF-CEM cells assessed as cell accumulation at G1 phase at 0.25 uM incubated for 24 hrs by PI staining based flow cytometry analysis (reference value: 24.1 %); format: functional
CCRF-CEM [14] = assay: Induction of cell cycle arrest in human CCRF-CEM cells assessed as cell accumulation at S phase at 0.25 uM incubated for 24 hrs by PI staining based flow cytometry analysis (reference value: 15.5 %); format: functional
CCRF-CEM [15] = assay: Induction of cell cycle arrest in human CCRF-CEM cells assessed as cell accumulation at G2/M phase at 0.25 uM incubated for 24 hrs by PI staining based flow cytometry analysis (reference value: 61.3 %); format: functional
CCRF-CEM [16] = assay: Induction of cell cycle arrest in human CCRF-CEM cells assessed as cell accumulation at G1 phase at 0.5 uM incubated for 24 hrs by PI staining based flow cytometry analysis (reference value: 24.1 %); format: functional
CCRF-CEM [17] = assay: Induction of cell cycle arrest in human CCRF-CEM cells assessed as cell accumulation at G2/M phase at 0.5 uM incubated for 24 hrs by PI staining based flow cytometry analysis (reference value: 61.3 %); format: functional
CCRF-CEM [18] = assay: Induction of cell cycle arrest in human CCRF-CEM cells assessed as cell accumulation at G1 phase at 1 uM incubated for 24 hrs by PI staining based flow cytometry analysis (reference value: 24.1 %); format: functional
CCRF-CEM [19] = assay: Induction of cell cycle arrest in human CCRF-CEM cells assessed as cell accumulation at S phase at 1 uM incubated for 24 hrs by PI staining based flow cytometry analysis (reference value: 15.5 %); format: functional
CCRF-CEM [20] = assay: Induction of cell cycle arrest in human CCRF-CEM cells assessed as cell accumulation at G1 phase at 2 uM incubated for 24 hrs by PI staining based flow cytometry analysis (reference value: 24.1 %); format: functional
CCRF-CEM [21] = assay: Downregulation of ROS level in human CCRF-CEM cells assessed as increase in GPx activity at 0.125 to 2 uM incubated for 12 hrs in presence of NADPH by […]; format: functional, cell-based; settings: dose 0.125-2 µM
CCRF-CEM [22] = assay: Downregulation of ROS level in human CCRF-CEM cells assessed as H2O2 level at 1 uM incubated for 12 hrs in presence of NADPH by absorbance based assay; format: functional, cell-based
CCRF-CEM [23] = assay: Downregulation of ROS level in human CCRF-CEM cells assessed as CAT level at 1 uM incubated for 12 hrs in presence of NADPH by absorbance based assay; format: functional, cell-based

C[C@@H]1CC[C@H]2[C@@H](C)C(OC(=O)c3ccc(N(CCCl)CCCl)cc3)O[C@@H]3O[C@@]4(C)CC[C@@H]1[C@]32OO4 (stereo not given in full)
IC50 (HCT-116): 3100 nM | IC50 (A549): 2870 nM | selectivity ratio [1]: 44.7 | Selectivity Index [2]: 17.2 | Activity (CCRF-CEM [3]): Dose-Dependent Effect | Activity (CCRF-CEM [4]): 20.5% | Activity (CCRF-CEM [5]): 0.1% | viability at 0.5 µM (CCRF-CEM [6]): 64.4% | Activity (CCRF-CEM [7]): 12.8% | Activity (CCRF-CEM [8]): 0.1% | Activity (CCRF-CEM [9]): 12.8% | Activity (CCRF-CEM [10]): 37.3% | Activity (CCRF-CEM [11]): 0.1% | Activity (CCRF-CEM [12]): Dose-Dependent Effect | Activity (CCRF-CEM [13]): 26.8% | Activity (CCRF-CEM [14]): 7.9% | Activity (CCRF-CEM [15]): 65.9% | Activity (CCRF-CEM [16]): 22.8% | Activity (CCRF-CEM [17]): 70.8% | Activity (CCRF-CEM [18]): 18.2% | Activity (CCRF-CEM [19]): 35.1% | Activity (CCRF-CEM [20]): 26.9% | Activity (CCRF-CEM [21]): Active | Activity (CCRF-CEM [22]): inactive | Activity (CCRF-CEM [23]): inactive
